According to KR20130112248A, “피라졸로피리미딘 유도체 화합물, 이를 포함하는 산화질소 생성 억제용 조성물 및 뇌신경 질환 예방 및 치료용 약학적 조성물” (한국과학기술연구원, priority 2012, dated 2013):

system: NO production in BV-2 cells [NO 생성; BV-2 세포]; assay: Nitric oxide (NO) quantification (nitrite, Griess reaction) in LPS-activated BV-2 cells; assay type: cell-based; conditions: 20 μM, LPS 0.2 ㎍/mL, 24 h co-treatment, nitrite by Griess at 540 nm

With “2-(4-(4-플루오로벤질아미노)-6-(메틸티오)-1H-피라졸로[3,4-d]피리미딘-1-일)에틸카바메이트 [화합물 14f]” the “NO (% of LPS)” value was 38.3±1.3 % of LPS.

same assay, conditions: 20 μM, LPS 0.2 ㎍/mL, 24 h co-treatment, nitrite by Griess at 540 nm, 1440 min

For `COc1cccc(CCn2ncc3c(NCc4ccccc4C)nc(S(C)(=O)=O)nc32)c1` [화합물 23y, N-(2-메틸벤질)-1-(3-메톡시펜에틸)-6-(메틸설포닐)-1H-피라졸로[3,4-d]피리미딘-4-아민], the “NO (% of LPS)” value was 54±3.5 % of LPS.
With `CSc1nc(N[C@H](C)c2ccccc2)c2cnn(C(C)(C)C)c2n1` [화합물 17g, (R)-1-t-뷰틸-4-(1-페닐에틸)아미노-6-(메틸티오)피라졸로[3,4-d]피리미딘] the “NO (% of LPS)” value was 42±18 % of LPS.
For `CC(Nc1nc([S+](C)[O-])nc2c1cnn2Cc1ccccc1)c1ccccc1` (centres unmarked) [화합물 22i, 1-벤질-6-(메틸설파이닐)-N-(1-페닐에틸)-1H-피라졸로[3,4-d]피리미딘-4-아민], the “NO (% of LPS)” value was 81±7.5 % of LPS.

same assay, conditions: Mus musculus, 20 μM, LPS 0.2 ㎍/mL, 24 h co-treatment, nitrite by Griess at 540 nm

`CSc1nc(N2CCN(C)CC2)c2cn[nH]c2n1` [6n, 4-(4-메틸피페라지노)-6-(메틸티오)피라졸로[3,4-d]피리미딘] showed an activity at 20 µM of 114 ± 9%.

same assay, conditions: Mus musculus, BV-2, 24 h, 20 μM, LPS 0.2 ㎍/mL, 24 h co-treatment, nitrite by Griess at 540 nm

Point of comparison: `CSc1nc(NCc2ccc(F)cc2)c2cnn(C(C)(C)C)c2n1` [화합물 17c, 1-t-뷰틸-4-(4-플루오로벤질)아미노-6-(메틸티오)피라졸로[3,4-d]피리미딘], activity at 20 µM 59 ± 2%. Against it:
- CSc1nc(NC2CCCCC2)c2cn[nH]c2n1 [6t, 4-사이클로헥실아미노-6-(메틸티오)피라졸로[3,4-d]피리미딘] — higher, 106 ± 5%
- COc1ccc(CNc2nc(SC)nc3c2cnn3CCc2cccc(OC)c2)cc1 [화합물 18e, 1-(3-메톡시펜에틸)-N-(4-메톡시벤질)-6-(메틸티오)-1H-피라졸로[3,4-d]피리미딘-4-아민] — lower, 44 ± 1.3%
- CSc1nc(NC(C)(C)CO)c2cnn(C)c2n1 [12b, 1-메틸-4-[(1-하이드록시-2,2-다이메틸)에틸]아미노-6-(메틸티오)피라졸로[3,4-d]피리미딘] — higher, 90 ± 7%
- CCCCNc1nc(SC)nc2c1cnn2C(C)(C)C [화합물 17l, 1-t-뷰틸-N-뷰틸-6-(메틸티오)-1H-피라졸로[3,4-d]피리미딘-4-아민] — higher, 82 ± 9.5%
- COc1cccc(CNc2nc(SC)nc3[nH]ncc23)c1 [6i, 4-(3-메톡시벤질)아미노-6-(메틸티오)피라졸로[3,4-d]피리미딘] — within error, 48 ± 10%
- COc1cccc(CCn2ncc3c(NCc4ccccc4)nc(SC)nc32)c1 [화합물 18h, 1-(3-메톡시펜에틸)-N-벤질-6-(메틸티오)-1H-피라졸로[3,4-d]피리미딘-4-아민] — within error, 56 ± 3.1%
- COc1ccc(CNc2nc(SC)nc3c2cnn3C(C)(C)C)cc1 [화합물 17e, 1-t-뷰틸-4-(4-메톡시벤질)아미노-6-(메틸티오)피라졸로[3,4-d]피리미딘] — lower, 21 ± 27%
- COc1cccc(CCn2ncc3c(NCc4cccc(OC)c4)nc(SC)nc32)c1 [화합물 18d, N-(3-메톡시벤질)-1-(3-메톡시펜에틸)-6-(메틸티오)-1H-피라졸로[3,4-d]피리미딘-4-아민] — lower, 39 ± 4.8%
- CSc1nc(N(CCO)CCO)c2cnn(Cc3ccccc3)c2n1 [화합물 16i, 1-벤질-4-비스(1-하이드록시에틸)아미노-6-(메틸티오)피라졸로[3,4-d]피리미딘] — higher, 79 ± 3%
- CSc1nc(NCc2ccccc2Cl)c2cnn(-c3ccc(C)cc3)c2n1 [화합물 21a, N-(2-클로로벤질)-6-(메틸티오)-1-p-톨릴-1H-피라졸로[3,4-d]피리미딘-4-아민] — lower, 37 ± 10.7%
- CSc1nc(N(CCO)CCO)c2cnn(-c3ccccc3)c2n1 [화합물 15i, 1-페닐-4-비스(1-하이드록시에틸)아미노-6-(메틸티오)피라졸로[3,4-d]피리미딘] — higher, 90 ± 3%
- CSc1nc(NC(C)C2CCCCC2)c2cnn(-c3ccccc3)c2n1 (centres unmarked) [화합물 15za, N-(1-사이클로헥실에틸)-6-(메틸티오)-1-페닐-1H-피라졸로[3,4-d]피리미딘-4-아민] — lower, 36 ± 0.7%
- CCCCCCCCSc1nc(SC)nc2c1cnn2Cc1ccccc1 [화합물 16v, 1-벤질-6-(메틸티오)-4-(옥틸티오)-1H-피라졸로[3,4-d]피리미딘] — higher, 95 ± 4%
- CSc1nc(NCc2ccccn2)c2c(-c3ccccc3)nn(-c3ccccc3)c2n1 [화합물 31f, 1-페닐-3-페닐-4-(피리딘-2-일)메틸아미노-6-(메틸티오)피라졸로[3,4-d]피리미딘] — higher, 100 ± 5%
- CSc1nc2c(cnn2-c2ccccc2)c(=S)[nH]1 [9b, 1-페닐-6-(메틸티오)피라졸로[3,4-d]피리미딘-4-티온] — higher, 94 ± 7%
- CSc1nc(NCc2ccc(C)cc2)c2cnn(-c3ccccc3)c2n1 [화합물 15p, 1-페닐-4-(4-메틸벤질)아미노-6-(메틸티오)피라졸로[3,4-d]피리미딘] — higher, 71 ± 5%
- Cc1ccc(C(C)Nc2nc(S(C)(=O)=O)nc3c2cnn3-c2ccccc2)cc1 (centres unmarked) [화합물 23g, 6-(메틸설포닐)-1-페닐-N-(1-p-톨릴에틸)-1H-피라졸로[3,4-d]피리미딘-4-아민] — lower, 46 ± 3.9%
- CSc1nc(NC(c2ccccc2)c2ccc(Cl)cc2)c2cnn(Cc3ccccc3)c2n1 (centres unmarked) [화합물 16y, 1-벤질-N-((4-클로로페닐)(페닐)메틸)-6-(메틸티오)-1H-피라졸로[3,4-d]피리미딘-4-아민] — lower, 41 ± 0.9%
- C=CCn1ncc2c(NCCO)nc(SC)nc21 [화합물 13c, 1-알릴-4-(1-하이드록시에틸)아미노-6-(메틸티오)피라졸로[3,4-d]피리미딘] — higher, 77 ± 7%
- COc1cccc(CNc2nc(S(C)(=O)=O)nc3c2cnn3CCc2ccccc2OC)c1 [화합물 23z, 1-(2-메톡시펜에틸)-N-(3-메톡시벤질)-6-(메틸설포닐)-1H-피라졸로[3,4-d]피리미딘-4-아민] — lower, 51 ± 3.5%
- CSc1nc(NC2CCCCC2)c2cnn(-c3ccccc3)c2n1 [화합물 15q, 1-페닐-4-사이클로헥실아미노-6-(메틸티오)피라졸로[3,4-d]피리미딘] — lower, 54 ± 1%
- COc1ccccc1CNc1nc(SC)nc2c1cnn2Cc1ccccc1 [화합물 16zc, N-(2-메톡시벤질)-1-벤질-6-(메틸티오)-1H-피라졸로[3,4-d]피리미딘-4-아민] — lower, 50 ± 1.1%
- CSc1nc(NCc2ccc(Cl)cc2)c2cnn(Cc3ccccc3)c2n1 [화합물 16zd, N-(4-클로로벤질)-1-벤질-6-(메틸티오)-1H-피라졸로[3,4-d]피리미딘-4-아민] — lower, 46 ± 1.9%
- CSc1nc(SCc2ccccc2Cl)c2cnn(Cc3ccccc3)c2n1 [화합물 16s, 4-(2-클로로벤질티오)-1-벤질-6-(메틸티오)-1H-피라졸로[3,4-d]피리미딘] — higher, 66 ± 2.6%
- CSc1nc(NCc2ccccc2Cl)c2cn[nH]c2n1 [6w, N-(2-클로로벤질)-6-(메틸티오)-1H-피라졸로[3,4-d]피리미딘-4-아민] — lower, 46 ± 2.9%
- CCN(CC)c1nc(SC)nc2[nH]ncc12 [6u, 4-다이에틸아미노-6-(메틸티오)피라졸로[3,4-d]피리미딘] — higher, 87 ± 8%
- COc1ccc(CNc2nc(S(C)(=O)=O)nc3c2cnn3-c2ccc(C)cc2)cc1 [화합물 23o, N-(4-메톡시벤질)-6-(메틸설포닐)-1-p-톨릴-1H-피라졸로[3,4-d]피리미딘-4-아민] — lower, 30 ± 2.4%
- CSc1nc(Cl)c2cnn(C)c2n1 [5a, 1-메틸-4-클롤로-6-(메틸티오)피라졸로[3,4-d]피리미딘] — lower, 51 ± 2%
- CS(=O)(=O)c1nc(NCc2ccccc2Cl)c2cnn(-c3ccc(F)cc3)c2n1 [화합물 23j, N-(2-클로로벤질)-1-(4-플루오로페닐)-6-(메틸설포닐)-1H-피라졸로[3,4-d]피리미딘-4-아민] — lower, 28 ± 19.3%
- CSc1nc(NCc2ccccc2)c2c(-c3ccccc3)nn(-c3ccccc3)c2n1 [화합물 31a, 1-페닐-3-페닐-4-벤질아미노-6-(메틸티오)피라졸로[3,4-d]피리미딘] — within error, 68 ± 28%
- CSc1nc(NC(C)C2CCCCC2)c2cnn(-c3ccc(C)cc3)c2n1 (centres unmarked) [화합물 21h, N-(1-사이클로헥실에틸)-6-(메틸티오)-1-p-톨릴-1H-피라졸로[3,4-d]피리미딘-4-아민] — higher, 73 ± 2.6%
- CSc1nc(NCc2ccccc2C)c2cnn(Cc3ccccc3)c2n1 [화합물 16f, 1-벤질-4-(2-메틸벤질)아미노-6-(메틸티오)피라졸로[3,4-d]피리미딘] — lower, 35 ± 6%
- CSc1nc(NCc2ccccc2)c2cnn(Cc3ccccc3)c2n1 [화합물 16a, 1-벤질-4-벤질아미노-6-(메틸티오)피라졸로[3,4-d]피리미딘] — lower, 35 ± 0.5%
- COc1ccccc1CCn1ncc2c(NCc3ccccc3OC)nc(SC)nc21 [화합물 19i, N-(2-메톡시벤질)-1-(2-메톡시펜에틸)-6-(메틸티오)-1H-피라졸로[3,4-d]피리미딘-4-아민] — lower, 23.1 ± 0.5%

same assay, conditions: Mus musculus, BV-2, 24 h, 30 μM, LPS 0.2 ㎍/mL, 24 h co-treatment, nitrite by Griess at 540 nm

Compound `CSc1nc(NCCO)c2c(I)n[nH]c2n1` [11b, 3-아이오도-4-(1-하이드록시에틸)아미노-6-(메틸티오)피라졸로[3,4-d]피리미딘] has an activity at 30 µM of 82 ± 7%.
